Data published in patent US5225420A, “Use of tetrahydrothienopyridine derivatives as angiogenesis inhibitors” (Elf-Sanofi, priority 1991, dated 1993).
Read-outs that look alike come from different tables or passages of the source.

Key:
[1] = test system: bovine cerebral cortex capillary endothelial cells; test: Inhibition of rb-FGF-stimulated capillary endothelial cell proliferation (in vitro test); type: cell-based; details: 1 ng/ml rb-FGF, cell counting 5 days after addition of test product, read-out: IC50 (50% inhibition of cell proliferation)
Experimental: A nutrient medium (Dulbecco's modified Eagle medium-DMEM), supplemented with fetal calf serum (concentration: 5% V/V) and containing glutamine (4 mM), penicillin (100 U/ml) and streptomycin sulphate (100 μg/ml), is introduced into 1-ml wells and innoculated with bovine cerebral cortex capillary endothelial cells (20×10^3 cells/ml), isolated and cultured as described by D. Gospodarowicz et al. in J. Cell. Physiol. 127, p. 121-136 (1986).
As soon as cell adhesion has taken place, 1 ng/ml of recombinant bovine basic fibroblast growth factor (rb-FGF), marketed by Amersham, a known factor for the stimulation of angiogenesis in vivo, is added, followed by the test solutions.
Cell counting is performed 5 days after the addition of 20 μl of a solution of the test products in dimethyl sulphoxide such that their final concentration in the medium is between 10^-4 and 10^-8 M; the control wells receive 20 μl of solvent.
From the results obtained for several concentrations of each of the test products, the concentration at which the latter produce a 50% inhibition of cell proliferation is calculated in a conventional manner.

[2] = test system: angiogenic response induced by fibrin gels; details: rat
Experimental: (§1) Perforated Plexiglas chambers containing a fibrin gel, obtained by polymerisation of rat fibrinogen in the presence of thrombin, are implanted subcutaneously in rats.
The test products, suspended in absolute alcohol and 5% gum arabic (10 ml/kg), are administered orally to the rats at doses of 5 and 25 mg/kg/day for the compounds of Examples 3 and 4, for 5 days before implantation and up to the time of removal of the chambers. After 14 days, a granulation outgrowth is formed, and the chambers are removed in order to observe the height of the granulation outgrowth anchored in the matrix and the quantity of newly-formed vessels which have appeared.
(§2) The inhibition of the angiogenic response was evaluated by:
(§3) (i) the height and diameter of the granulation outgrowths,
(§4) (ii) the number of newly-formed vessels per outgrowth and their localisation,
(§5) (iii) the quality of the granulation tissue.

[3] = test system: angiogenic response induced by fibrin gels; details: rat, treatment begun after 14 days
Experimental: as §1, §2, §3, §4, §5

platelet aggregation = details: described in EP-A-0 281,459; cited from earlier work
[4] = Bos taurus, Endothelial cell, 120 h

Compound	IC50 [1, 4]	IC50 [1]	effectiveness on height of granulation outgrowths ([2]; 5 mg/kg/day oral)	inhibition of height of the granulation outgrowths ([2]; 25 mg/kg/day oral)	lowering of number of newly-formed vessels per outgrowth ([2]; 25 mg/kg/day oral)	also measured
O=C(O)C(c1ccccc1Cl)N1CCc2sccc2C1 (single isomer, unassigned) [Compound 1]	0.6 µM					
COC(=O)C(c1ccccc1Cl)N1CCc2sccc2C1 (centres unmarked) [Compound 2]	0.0023 µM					
COC(=O)C(c1ccccc1Cl)N1CCc2sccc2C1 (single isomer, unassigned) [Compound 3]		0.0008 µM	remains effective	50%	90%	angiogenesis-inhibiting activity ([2]; 5 mg/kg/day oral): still very active; inhibition of height of the granulation outgrowths ([2]; 5 mg/kg/day oral): 50%; lowering of number of newly-formed vessels per outgrowth ([2]; 5 mg/kg/day oral): 50%; angiogenesis-inhibiting activity (comparison with compound No. 4) ([2]; 25 mg/kg/day oral): markedly more active than its homologue, the compound No. 4; quality of the granulation tissue ([2]; oral, dose not given): more loose-textured and disorganised; activity on regression of angiogenesis ([3]; 5 mg/kg/day): still very active; activity on regression of angiogenesis (comparison with compound No. 4) ([3]; 25 mg/kg/day): markedly more active than its homologue, the compound No. 4
CCOC(=O)C(c1ccccc1Cl)N1CCc2sccc2C1 (centres unmarked) [Compound 5]	0.07 µM					
CCCCOC(=O)C(c1ccccc1Cl)N1CCc2sccc2C1 (centres unmarked) [Compound 6]	0.22 µM					
COC(=O)C(c1ccccc1Cl)N1CCc2sccc2C1 (single isomer, unassigned) [Compound 4, laevorotatory isomer of methyl alpha-(4,5,6,7-tetrahydrothieno[3,2-c]pyrid-5-yl)-alpha-(2-chlorophenyl)acetate]		0.0037 µM	in contrast to the latter compound	30%	60%	platelet aggregation inhibition (platelet aggregation): inactive
